Reference: patent US5563037A, “Homogeneous method for assay of double-stranded nucleic acids using fluorescent dyes and kit useful therein” (Johnson & Johnson Clinical Diagnostics, Inc., priority 1995, dated 1996)
pKd: −log10 of the molar value. Values joined by “and” are separate entries in the source; they are usually repeats but may differ in a detail not shown here. Equal values may be shown once.

Key:
[1] = target: double-stranded nucleic acids; assay: Binding constant (Kb) of fluorescent dye with double-stranded nucleic acids; conditions: Kp from Molecular Probes catalog divided by 55
Description: The fluorescent dyes useful herein are generally defined as unsymmetrical cyanine dyes having a binding constant (Kb) within the range of from about 1×104 to about 5×105 (molar^-1). As used to define Kb, "about" refers to a variance of 10%. The dyes are also water-soluble or water-dispersible so they can bind to the nucleic acids in the aqueous reaction mixture. Depending upon the anions used, the dyes may be dissolved in a water-miscible solvent.
Particularly useful fluorescent dyes are commercially available from Molecular Probes, Inc. having the trade names and Kp values listed in Table I below. However, this invention is not to be construed as limited to the particular Molecular Probes, Inc. dyes listed therein since these are but preferred dyes. The cations of these preferred dyes are also identified below by chemical structure. The compounds can include any suitable divalent anion, or two monovalent anions. Iodide is preferred. [drawing 3]
*The Kb values in the table were calculated by dividing the partitio
coefficient (Kp) reported in the Molecular Probes, Inc. catalog, page 224
by 55, the molarity of water.

HIV-I DNA [2] = assay: Example 3: fluorescence after amplification with dye; usefulness / PCR inhibition; assay type: biochemical; conditions: for Fluorescent Signal: amplified samples mixed with YOYO-1 (0.1 μmolar); for usefulness of dye / inhibition of PCR: dye in amplification
Experimental: The primers used in Example 3 had the following sequences which are complementary to the gag region of HIV-I DNA: Amplification experiments like those of Example 2 were also carried out to evaluate the usefulness of several other conventional fluorescent dye stains. In these assays, primers identified above as SEQ ID NO:3 and SEQ ID NO:4 were used, as well as the probe identified as SEQ ID NO:6. […] Fluorescence was determined as described in Example 2 except that all amplified samples were mixed with a solution of YOYO-1 (0.1 μmolar) to provide a common minimum threshold of signal.

HIV-I DNA [3] = assay: Example 2: leuco dye color scores of amplified target in pouches; assay type: biochemical; conditions: dye added prior to amplification
Experimental: (§1) The method of this invention was compared to an amplification and detection method outside the scope of this invention, which was carried out using YOYO-1 (1 μmolar final concentration), a tetravalent fluorescent dye, in the buffered solution described above. This dye has the following structure: [drawing 4]
Amplification was carried out using self-contained chemical pouches such as those described in U.S. Pat. No. 5,229,297 (Schnipelsky et al). Those pouches contained the capture probe SEQ ID NO:5 attached to particles which were immobilized in a detection channel where reactions can take place.
The pouches were loaded with reagents, as follows:
(§2) The PCR reaction mixture of Example 1 (except the DNA polymerase) was made to a volume of 5472 μl. The resulting mixture was aliquoted into tubes A, B and C (1824 μl each) representing Samples A, B and C, respectively.
(§3) The sample in Tube A was diluted with buffer (220 μl) and subjected to amplification without any fluorescence dye present. The dye was added at the end of amplification for quantitative detection of the resulting products.
(§4) In addition to the PCR reagents, the sample in Tube B contained YOYO-1 fluorescent dye (0.1 μmolar) which had been added prior to amplification (220 μl of a 10 μmolar solution).
(§5) The sample in Tube C also contained YO-PRO-1 fluorescent dye (0.1 μmolar) which had been added prior to amplification (220 μl of a 10 μmolar solution).
(§6) The DNA polymerase (88 μl) and target HIV-I DNA target nucleic acid (220 μl) were then added to each tube, and the contents of the each of the three tubes were used to fill the PCR reagent compartment of eight pouches.
Amplification was carried out using the same procedures as in Example 1. The PCR protocol was similarly carried out for 40 cycles using a thermal cycler as follows:
1) Preheat to denature at 95° C. for 60 seconds,
priming and extension for 40 seconds at 63.5° C., and denaturation for 10 seconds at 95° C., and
3) final denaturation for 60 seconds at 95° C.
(§7) The results of amplification were detected in three ways: (1) color dye scores visually evaluated as 0 (no signal) to 10 (highest signal density), (2) ethidium bromide stained electrophoretic gels, and (3) fluorescence measured on a commercially available Perkin Elmer fluorimeter.
The noted color scores were obtained by using immobilized capture probes in the pouches with which the amplified target hybridized during incubation for 5 minutes at 42° C. The immobilized target was contacted with the conjugate solution (identified above) for 1 minute at 30° C., followed by the wash solution for 1 minute at 55° C. The leuco dye solution was then added at 30° C. and the resulting color signal was observed after two minutes incubation at 30° C. […]

HIV-I DNA [4] = assay: Example 2: fluorescence of amplification products; assay type: biochemical
Experimental: as §1, §2, §3, §4, §5, §6
Amplification was carried out using the same procedures as in Example 1. […]
as §7
Three replicate assays of each sample (A, B and C) were carried out using each detection means. The average result for each detection means was as follows:
Fluorescent signal was generated using a Perkin-Elmer LS-5B fluorimeter, at the following wavelengths for both dyes:
Each amplification product mixture was diluted 100× into a solution of each dye (1 μmolar final concentration). Background signals were obtained from a mixture of amplification reagent mixture and each dye.

HIV-I DNA [5] = assay: Example 2: ethidium bromide stained electrophoretic gels of amplification products; assay type: biochemical
Experimental: The method of this invention was compared to an amplification and detection method outside the scope of this invention, which was carried out using YOYO-1 (1 μmolar final concentration), a tetravalent fluorescent dye, in the buffered solution described above. This dye has the following structure: [drawing 4] The PCR reaction mixture of Example 1 (except the DNA polymerase) was made to a volume of 5472 μl. The resulting mixture was aliquoted into tubes A, B and C (1824 μl each) representing Samples A, B and C, respectively. The sample in Tube A was diluted with buffer (220 μl) and subjected to amplification without any fluorescence dye present. The dye was added at the end of amplification for quantitative detection of the resulting products. In addition to the PCR reagents, the sample in Tube B contained YOYO-1 fluorescent dye (0.1 μmolar) which had been added prior to amplification (220 μl of a 10 μmolar solution). The sample in Tube C also contained YO-[…] fluorescent dye (0.1 μmolar) which had been added prior to amplification (220 μl of a 10 μmolar solution). The DNA polymerase (88 μl) and target HIV-I DNA target nucleic acid (220 μl) were then added to each tube, and the contents of the each of the three tubes were used to fill the PCR reagent compartment of eight pouches. Amplification was carried out using the same procedures as in Example 1. […] follows: The results of amplification were detected in three ways: (1) color dye scores visually evaluated as 0 (no signal) to 10 (highest signal density), (2) ethidium bromide stained electrophoretic gels, and (3) fluorescence measured on a commercially available Perkin Elmer fluorimeter. Electrophoresis was carried out using commercially available NuSieve 1.5%/Seakem Agarose 1% gels (modified to 2.5% agarose) and ethidium bromide stain. The samples were applied to the gels in conventional TBE buffer (4 μl/100 μl). Three replicate assays of each sample (A, B and C) were carried out using each detection means. The average result for each detection means was as follows: […]

[6] = 60 cycles, in the presence of YOYO-1

Compound | pKd [1] | Fluorescent Signal (HIV-I DNA [2]) | usefulness of dye / inhibition of PCR (HIV-I DNA [2]) | other results
C[n+]1c(C=C2C=CN(CCC[N+](C)(C)C)C=C2)oc2ccccc21 [A] | 4.56 |  |  | 
C[n+]1c(C=C2C=CN(CCC[N+](C)(C)C)C=C2)sc2ccccc21 [Compound C] | 4.76 | 19.6 | useful | 
C[n+]1c(C=C2C=CN(CCC[N+](C)(C)C)c3ccccc32)sc2ccccc21 [Compound G] | 5.56 | 8.32 | useful | 
C[n+]1c(C=CC=C2C=CN(CCC[N+](C)(C)C)c3ccccc32)sc2ccccc21 [Compound H] | 5.04 | 15.5 | useful | 
C[n+]1c(C=CC=C2C=CN(CCC[N+](C)(C)C)C=C2)sc2ccccc21 [D] | 4.94 |  |  | 
C[n+]1c(C=CC=C2C=CN(CCC[N+](C)(C)C)c3ccccc32)oc2ccccc21 [F] | 4.78 |  |  | 
CN1/C(=C/c2cc[n+](CCC[N+](C)(C)CCC[N+](C)(C)CCC[n+]3ccc(/C=C4\Sc5ccccc5N4C)c4ccccc43)c3ccccc23)Sc2ccccc21.[I-].[I-].[I-].[I-] [TOTO-1, reference compound] |  | 2.70 |  | 
C[n+]1c(C=C2C=CN(CCC[N+](C)(C)CCC[N+](C)(C)CCCN3C=CC(=Cc4oc5ccccc5[n+]4C)c4ccccc43)c3ccccc32)oc2ccccc21 [YOYO-1] |  | 2.18 | not useful because they generally inhibited PCR | effect of dye on amplification (color scores) (HIV-I DNA [3]): inhibited amplification; Average Color Score (HIV-I DNA [3]; leuco dye, 0 (no signal) to 10 (highest signal density), 40 cycles): 0; difference with modified protocol, by fluorescence (HIV-I DNA [4]; [6]): small and was detectable by fluorescence; Fluorescence, dye added after amplification (Sample A) (HIV-I DNA [4]; Sample A, dye added after amplification, replicates, 491/509 nm): 7.1 Fluorescent Units and 6.6 Fluorescent Units and 6.0 Fluorescent Units (2×); Background fluorescence (HIV-I DNA [4]; amplification reagent mixture and dye, excitation 491 nm, emission 509 nm): 0.09 Fluorescent Units; effect of dye on amplification / overall signal (HIV-I DNA [4]; comparison of the two dyes (fluorescence)): considerably inhibits the amplification process; Fluorescence, dye present during amplification (Samples B, C) (HIV-I DNA [4]; dye added prior to amplification, replicates, 491/509 nm): 1.5 Fluorescent Units (3×) and 1.4 Fluorescent Units (2×); nucleic acid staining (HIV-I DNA [4]; in words): high nucleic acid staining; difference with modified protocol, by gel electrophoresis (HIV-I DNA [5]; [6]): not by gel electrophoresis; effect of dye on amplification (gel) (HIV-I DNA [5]; dye added prior to amplification): stopped amplification; Positive/negative Gel Bands (HIV-I DNA [5]; dye added prior to amplification, 40 cycles): 5 Negatives out of 5 bands
TOTO-3 [reference compound] |  | 8.45 |  | Fluorescent signal and its repeatability (in words) (HIV-I DNA [2]; Table II footnote): high fluorescent signal in one experiment
